Laboratory results as given in US20230066011A1, “PYRROLOPYRIMIDINE DERIVATIVE, AND PHARMACEUTICAL COMPOSITION FOR PREVENTING OR TREATING PROTEIN KINASE-RELATED DISEASE COMPRISING SAME AS ACTIVE INGREDIENT” (VORONOI CO., LTD., priority 2019, published 2023).

Experiments:
human GST-CLK1 = molecular target: T1, human GST-CLK1 (Homo sapiens, UniProt P49759); test: GST-CLK1 enzyme inhibition, ADP-Glo kinase assay; assay type: biochemical; conditions: ATP 10 μM, GST-CLK1 129-end
T1 construct: purified human GST-CLK1 (129-end, SignalChem) enzyme; purchased SignalChem
Summary of the method: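 ADP-Glo luminescence read-out, relative to untreated solvent control, gave IC50 (nM) from triplicate data sets. Reactions ran an hour at 25° C with 3 ng GST-CLK1 (residues 129-end), 10 μM ATP and specific substrate in Tris-HCl pH 7.4 buffer with MgCl2, BSA and DTT.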

IL-6 = test: Inhibition of LPS-induced IL-6 secretion of THP-1 monocytes (ELISA); assay type: cell-based, human; conditions: Homo sapiens, THP-1; compound 0.5 μM, LPS 500 ng/mL, 24 hours; read-out: THP1/IL6 (% inhib)
Summary of the method: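 THP-1 monocytes grown 16 h at 37 °C, pretreated 1 h with compound at final 0.5 μM, then stimulated with LPS at final 500 ng/mL for 24 h. IL-6 and TNF-α in culture supernatant measured by ELISA (OD 450 nm).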

TTK = molecular target: T2, TTK (Homo sapiens, UniProt P33981); test: TTK enzyme inhibition, ADP-Glo kinase assay; assay type: biochemical; parameters: purchased SignalChem T20-10G; conditions: ATP 5 μM
T2 sequence (P33981 1-857): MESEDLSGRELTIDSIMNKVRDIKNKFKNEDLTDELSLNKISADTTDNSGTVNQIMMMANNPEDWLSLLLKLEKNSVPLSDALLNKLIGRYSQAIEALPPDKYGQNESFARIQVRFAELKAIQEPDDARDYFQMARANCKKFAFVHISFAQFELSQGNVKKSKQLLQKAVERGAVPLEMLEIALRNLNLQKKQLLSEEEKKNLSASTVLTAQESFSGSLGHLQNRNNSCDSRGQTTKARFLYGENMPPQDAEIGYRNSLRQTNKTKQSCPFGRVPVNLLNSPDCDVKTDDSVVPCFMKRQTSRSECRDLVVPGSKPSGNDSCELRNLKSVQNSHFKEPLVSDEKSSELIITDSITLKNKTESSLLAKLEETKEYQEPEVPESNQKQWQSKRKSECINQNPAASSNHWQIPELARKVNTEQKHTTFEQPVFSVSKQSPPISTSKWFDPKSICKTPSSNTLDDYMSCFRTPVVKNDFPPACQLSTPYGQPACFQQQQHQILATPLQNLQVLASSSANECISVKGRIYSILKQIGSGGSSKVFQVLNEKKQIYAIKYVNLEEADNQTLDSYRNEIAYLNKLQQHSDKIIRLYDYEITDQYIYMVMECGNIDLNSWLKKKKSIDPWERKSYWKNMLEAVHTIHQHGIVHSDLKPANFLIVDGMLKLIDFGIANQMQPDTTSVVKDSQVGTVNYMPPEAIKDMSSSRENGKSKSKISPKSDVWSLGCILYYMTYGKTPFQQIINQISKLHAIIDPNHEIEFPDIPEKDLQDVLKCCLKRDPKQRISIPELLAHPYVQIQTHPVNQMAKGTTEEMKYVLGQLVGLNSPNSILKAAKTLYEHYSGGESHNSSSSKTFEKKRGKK
Summary of the method: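 Purified human TTK (7.5 ng) was reacted with 5 μM ATP and 0.2 μg MBP substrate for 4 h at 25 °C in 40 mM Tris-HCl pH 7.4, 20 mM MgCl2, 0.1 mg/mL BSA, 50 μM DTT. ADP formation was read by ADP-Glo luminescence, and IC50 was taken relative to solvent control.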

T1 sequence (P49759 129-484 limits assumed): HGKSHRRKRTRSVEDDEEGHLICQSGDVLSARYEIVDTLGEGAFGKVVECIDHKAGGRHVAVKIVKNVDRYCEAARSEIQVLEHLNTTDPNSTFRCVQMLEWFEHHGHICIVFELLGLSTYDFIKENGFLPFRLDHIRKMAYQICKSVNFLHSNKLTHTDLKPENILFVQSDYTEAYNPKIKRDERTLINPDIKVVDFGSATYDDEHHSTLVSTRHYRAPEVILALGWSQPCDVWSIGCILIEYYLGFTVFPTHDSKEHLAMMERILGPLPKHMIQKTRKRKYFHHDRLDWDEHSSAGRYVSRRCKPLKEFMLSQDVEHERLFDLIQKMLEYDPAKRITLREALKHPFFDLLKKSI

Row | SMILES | IC50 (human GST-CLK1) [nM] | inhibition at 0.5 µM (IL-6) [%] | IC50 (TTK) [nM]
1 | O=C(c1ccc(Nc2nc(NC3CC3)c3c(C(F)(F)F)c[nH]c3n2)c2c1CCO2)N1CCC(N2CCOCC2)CC1 [Example 434, (7-((4-(cyclopropyl-amino)5-(trifluoromethyl)-7H-pyrrolo[2,3-d]pyrimidin-2-yl)amino)-2,3-dihydrobenzo-furan-4-yl)(4-morpho-linopiperidin-1-yl)methanone] | < 100 | 34.1 | < 100
2 | CNc1nc(Nc2ccc(S(=O)(=O)N3CCC(N4CCOCC4)CC3)c3c2OCCO3)nc2[nH]cc(C(F)(F)F)c12 [Example 219, N^4-methyl-N^2-(8-((4-morpholinopiperidin-1-yl)sulfonyl)-2,3-dihydrobenzo[b][1,4]dioxin-5-yl)-5-(trifluoromethyl)-7H-pyrrolo[2,3-d]pyrimidine-2,4-diamine] | < 100 | 10.9 | < 100
3 | CNc1nc(Nc2ccc(S(=O)(=O)N3CCC(N4CCOCC4)CC3)cc2OC)nc2[nH]cc(C(F)(F)F)c12 [Example 157, N^2-(2-methoxy-4-((4-morpholinopiperidin-1-yl)sulfonyl)phenyl)-N^4-methyl-5-(trifluoromethyl)-7H-pyrrolo[2,3-d]pyrimidine-2,4-diamine 2,2,2-trifluoroacetate] | < 100 | 1.6 | < 100
4 | O=C(c1ccc(Nc2nc(NC3CCCC3)c3c(C(F)(F)F)c[nH]c3n2)c2c1OCCO2)N1CCN(C2COC2)CC1 [Example 414, (8-((4-(cyclopentyl-amino)-5-(trifluoromethyl)-7H-pyrrolo[2,3-d]pyrimidin-2-yl)amino)-2,3-dihydrobenzo[b] [1,4]dioxin-5-yl) (4-(oxetan-3-yl)piperazin-1-yl)methanone] | < 100 | 47.3 | < 100
5 | CCCNc1nc(Nc2ccc(C(=O)N3CCC(N4CCOCC4)CC3)c3c2OCC3)nc2[nH]cc(C(F)(F)F)c12 [Example 446, (4-morpholino-piperidin-1-yl)(7-((4-(propylamino)-5-(trifluoromethyl)-7H-pyrrolo[2,3-d]pyrimidin-2-yl)amino)-2,3-dihydrobenzo-furan-4-yl)methanone] | < 100 | 17.3 | < 100
6 | CCNc1nc(Nc2ccc(S(=O)(=O)N3CCC(N4CCOCC4)CC3)c3c2OCCO3)nc2[nH]cc(C(F)(F)F)c12 [Example 430, N^4-ethyl-N^2-(8-((4-morpholino-piperidin-1-yl)sulfonyl)-2,3-dihydro-benzo[b][1,4]dioxin-5-yl)-5-(trifluoromethyl)-7H-pyrrolo[2,3-d]pyrimidine-2,4-diamine] | 101 to 300 | 21 | < 100
7 | CNc1nc(Nc2ccc(C(=O)N3CCN(C4COC4)CC3)c3c2OCCO3)nc2[nH]cc(C(F)(F)F)c12 [Example 397, (8-((4-(methylamino)-5-(trifluoromethyl)-7H-pyrrolo[2,3-d]pyrimidin-2-yl)amino)-2,3-dihydrobenzo[b] [1,4]dioxin-5-yl) (4-(oxetan-3-yl)piperazin-1-yl)methanone] | < 100 | 32 | < 100
8 | CCNc1nc(Nc2ccc(C(=O)N3CCC(N4CCOCC4)CC3)c3c2OCC3)nc2[nH]cc(C(F)(F)F)c12 [Example 438, (7-((4-(ethylamino)-5-(trifluoromethyl)-7H-pyrrolo[2,3-d]pyrimidin-2-yl)amino)-2,3-dihydrobenzo-furan-4-yl)(4-morpho-linopiperidin-1-yl)methanone] | < 100 | 25.8 | < 100
9 | COCCNc1nc(Nc2ccc(C(=O)N3CCC(N4CCOCC4)CC3)c3c2OCC3)nc2[nH]cc(C#N)c12 [Example 359, 4-((2-methoxy-ethyl)ami-no)-2-((4-(4-morpholino-piperidine-1-carbonyl)-2,3-dihydro-benzofuran-7-yl)amino)-7H-pyrrolo[2,3-d]pyrimidine-5-carbonitrile] | < 100 | 32 | < 100
10 | CNc1nc(Nc2ccc(C(=O)N3CCC(N4CCOCC4)CC3)c3c2OCC3)nc2[nH]cc(C(F)(F)F)c12 [Example 217, (7-((4-(methylamino)-5-(trifluoromethyl)-7H-pyrrolo[2,3-d]pyrimidin-2-yl)amino)-2,3-dihydrobenzofuran-4-yl)(4-morpholinopiperidin-1-yl)methanone] | < 100 | 23.4 | < 100
11 | COCCNc1nc(Nc2ccc(C(=O)N3CCC(N4CCOCC4)CC3)c3c2OCC3)nc2[nH]cc(C(F)(F)F)c12 [Example 443, (7-((4-((2-methoxyethyl)amino)-5-(trifluoromethyl)-7H-pyrrolo[2,3-d]pyrimidin-2-yl)amino)-2,3-dihydrobenzo-furan-4-yl)(4-morpho-linopiperidin-1-yl)methanone] | < 100 | 4.6 | < 100
12 | COc1cc(P2(=O)CCN(C3CCOCC3)CC2)ccc1Nc1nc(NC2CC2)c2c(C(F)(F)F)c[nH]c2n1 [Example 435, 4-(4-((4-(cyclo-propylamino)-5-(trifluoromethyl)-7H-pyrrolo[2,3-d]pyrimidin-2-yl)amino)-3-methoxyphenyl)-1-(tetrahydro-2H-pyran-4-yl)-1,4-azaphosphinane 4-oxide] | < 100 | 22.2 | < 100
13 | CCNc1nc(Nc2ccc(C(=O)N3CCC(N4CCOCC4)CC3)c3c2OCC3)nc2[nH]cc(C#N)c12 [Example 347, 4-(ethylamino)-2-((4-(4-morpholino-piperidine-1-carbonyl)-2,3-dihydro-benzofuran-7-yl)amino)-7H-pyrrolo[2,3-d]pyrimidine-5-carbonitrile] | < 100 | 14.1 | –
14 | CCNc1nc(Nc2ccc(C(=O)N3CCC(N4C[C@@H]5C[C@H]4CO5)CC3)c3c2OCC3)nc2[nH]cc(C(F)(F)F)c12 [Example 468] | < 100 | 22.4 | < 100
15 | COc1cc(S(=O)(=O)N2CCC(N3C[C@H]4C[C@@H]3CO4)CC2)ccc1Nc1nc(C2CC2)c2c(C(F)(F)F)c[nH]c2n1 [Example 473, N-(4-((4-((1R,4R)-2-oxa-5-azabicyclo[2.2.1]heptan-5-yl)piperidin-1-yl)sulfonyl)-2-methoxyphenyl)-4-cyclopropyl-5-(trifluoromethyl)-7H-pyrrolo[2,3-d]pyrimidin-2-amine] | – | 31 | < 100
16 | O=C(c1ccc(Nc2nc(NCC3CC3)c3c(C(F)(F)F)c[nH]c3n2)c2c1CCO2)N1CCC(N2CCOCC2)CC1 [Example 461, (7-((4-((cyclo-propylmeth-yl)amino)-5-(trifluoromethyl)-7H-pyrrolo[2,3-d]pyrimidin-2-yl)amino)-2,3-dihydrobenzo-furan-4-yl)(4-morpho-linopiperidin-1-yl)methanone] | < 100 | 25.7 | –
17 | CNc1nc(Nc2ccc(C(=O)N3CC[C@H](N4CCOCC4)C3)c3c2OCC3)nc2[nH]cc(C(F)(F)F)c12 [Example 236, (S)-(7-((4-(methylamino)-5-(trifluoromethyl)-7H-pyrrolo[2,3-d]pyrimidin-2-yl)amino)-2,3-dihydrobenzofuran-4-yl)(3-morpholinopyrrolidin-1-yl)methanone] | < 100 | 22.9 | –
18 | O=C(c1ccc(Nc2nc(NC3CCC3)c3c(C(F)(F)F)c[nH]c3n2)c2c1OCCO2)N1CCN(C2COC2)CC1 [Example 407, (8-((4-(cyclo-butylamino)-5-(trifluoromethyl)-7H-pyrrolo[2,3-d]pyrimidin-2-yl)amino)-2,3-dihydrobenzo[b] [1,4]dioxin-5-yl) (4-(oxetan-3-yl)piperazin-1-yl)methanone] | < 100 | 20.2 | –
